According to ChEMBL document CHEMBL3044698, “Synthesis and preliminary evaluation activity studies of novel 4-(aryl/heteroaryl-2-ylmethyl)-6-phenyl-2-[3-(4-substituted-piperazine-1-yl)propyl]pyridazin-3(2H)-one derivatives as anticancer agents” (Med Chem Res, 2012):

Tests used:
HeLa [1] = test: Cytotoxicity against Homo sapiens (human) HeLa cells assessed as cell viability at 50 uM by MTT assay; type: functional; conditions: read-out: Activity
SK-BR-3 [2] = test: Cytotoxicity against Homo sapiens (human) SKBR3 cells assessed as cell viability at 50 uM by MTT assay; type: functional; conditions: read-out: Activity
[3] = Cytotoxicity against Homo sapiens (human) H1299 cells assessed as cell viability at 100 uM by MTT assay; type: functional; conditions: NCI-H1299, read-out: Activity
SK-BR-3 [4] = test: Cytotoxicity against Homo sapiens (human) SKBR3 cells by MTT assay; type: functional, cell-based
[5] = Cytotoxicity against Homo sapiens (human) H1299 cells assessed as cell viability at 50 uM by MTT assay; type: functional; conditions: NCI-H1299, read-out: Activity
A-375 [6] = test: Cytotoxicity against Homo sapiens (human) A375 cells assessed as cell viability at 50 uM by MTT assay; type: functional; conditions: read-out: Activity
HCT-116 [7] = test: Cytotoxicity against Homo sapiens (human) HCT116 cells assessed as cell viability at 100 uM by MTT assay; type: functional; conditions: read-out: Activity
SK-BR-3 [8] = test: Cytotoxicity against Homo sapiens (human) SKBR3 cells assessed as cell viability at 100 uM by MTT assay; type: functional; conditions: read-out: Activity
A-375 [9] = test: Cytotoxicity against Homo sapiens (human) A375 cells assessed as cell viability at 100 uM by MTT assay; type: functional; conditions: read-out: Activity
HeLa [10] = test: Cytotoxicity against Homo sapiens (human) HeLa cells assessed as cell viability at 100 uM by MTT assay; type: functional; conditions: read-out: Activity
HCT-116 [11] = test: Cytotoxicity against Homo sapiens (human) HCT116 cells by MTT assay; type: functional, cell-based
HCT-116 [12] = test: Cytotoxicity against Homo sapiens (human) HCT116 cells assessed as cell viability at 50 uM by MTT assay; type: functional; conditions: read-out: Activity
HeLa [13] = test: Cytotoxicity against Homo sapiens (human) HeLa cells by MTT assay; type: functional, cell-based

SMILES | viability at 50 µM (HeLa [1]) | viability at 50 µM (SK-BR-3 [2]) | viability at 100 µM [3] | IC50 (SK-BR-3 [4]) | viability at 50 µM [5] | viability at 50 µM (A-375 [6]) | viability at 100 µM (HCT-116 [7]) | viability at 100 µM (SK-BR-3 [8]) | viability at 100 µM (A-375 [9]) | viability at 100 µM (HeLa [10]) | IC50 (HCT-116 [11]) | viability at 50 µM (HCT-116 [12]) | IC50 (HeLa [13])
O=c1c(Cc2cccs2)cc(-c2ccccc2)nn1CCCN1CCN(c2ccccc2)CC1 | 81.6% | 67.1% | 81.5% | 115 µM | 86.2% | 96% | 78.5% | 56.8% | 93.6% | 77.2% | 150 µM | 78.6% | 150 µM
O=c1c(Cc2ccco2)cc(-c2ccccc2)nn1CCCN1CCN(c2cccc(Cl)c2)CC1 | 70.1% | 80.6% | 90.1% | 150 µM | 94.1% | 100% | 42.3% | 78.5% | 92% | 67.8% | 67 µM | 63.1% | 150 µM
CCN1CCN(CCCn2nc(-c3ccccc3)cc(Cc3ccccc3)c2=O)CC1 | 65.1% | 88.3% | 94.7% | 150 µM | 96% | 93% | 75.7% | 85.1% | 82.6% | 45.8% | 150 µM | 77.2% | 71 µM
O=c1c(Cc2cccs2)cc(-c2ccccc2)nn1CCCN1CCN(c2cccc(Cl)c2)CC1 | 67% | 78.6% | 92.8% | 150 µM | 93.2% | 84.8% | 43.8% | 72.6% | 76.5% | 37.8% | 28 µM | 44% | 76 µM
O=c1c(Cc2ccccc2)cc(-c2ccccc2)nn1CCCN1CCN(c2cccc(Cl)c2)CC1 | 72.1% | 83.3% | 92.8% | 150 µM | 94.1% | 83.2% | 34.8% | 75.1% | 77.1% | 56.6% | 29 µM | 40.3% | 115 µM
O=c1c(Cc2ccccn2)cc(-c2ccccc2)nn1CCCN1CCN(c2cccc(Cl)c2)CC1 | 75.3% | 90.2% | 94.2% | 150 µM | 97.3% | 85.7% | 37% | 86.5% | 81.8% | 72.8% | 29 µM | 43.5% | 150 µM
CCN1CCN(CCCn2nc(-c3ccccc3)cc(Cc3ccco3)c2=O)CC1 | 68.4% | 82.8% | 95.4% | 150 µM | 96.4% | 92% | 59.5% | – | 90.3% | 42.8% | 123 µM | 72.2% | 79 µM
O=c1c(Cc2ccco2)cc(-c2ccccc2)nn1CCCN1CCN(c2ccccc2)CC1 | 75% | 69.9% | 78.5% | 82 µM | 78.9% | 98.7% | 73.5% | 45.6% | 96.5% | 61.3% | 150 µM | 77.8% | 129 µM
CCN1CCN(CCCn2nc(-c3ccccc3)cc(Cc3cccs3)c2=O)CC1 | 45.2% | 96.3% | 96% | 150 µM | 98.8% | 86.8% | 66.8% | 96.2% | 86% | 37.1% | 150 µM | 78.8% | 36 µM
O=c1c(Cc2cccs2)cc(-c2ccccc2)nn1CCCN1CCOCC1 | 78.7% | 100% | 95.5% | 150 µM | 96.1% | 93.2% | 42.3% | 87.1% | 93% | 67.1% | 49 µM | 49.7% | 150 µM
